Several values for one entry are separate records, joined by “and”; a condition that tells them apart may be missing. Identical values can stand only once. Activity calls are given as the source filed them.
How the values were obtained:
[1] = HepG2 cell cytotoxicity, dose response, cytotoxicity control, cherry-picked samples (AID 1159577); type: functional, cell-based
[2] = Plasmodium falciparum Dd2 Sybr green parasite growth Measured in Cell-Based and Microorganism Combination System Using Plate Reader - 2153-01_Inhibitor_Dose_DryPowder_Activity_Set3.; type: functional
[3] = P. falciparum Dd2 growth inhibitors, dose response, SYBR Green, dry powder samples, set 9 (AID 1159568); type: functional, cell-based
[4] = P. falciparum ATP4 D1247Y mutant growth inhibitors, dose response, NITD609-resistant line, SYBR Green, dry powder (AID 1159571); type: functional, cell-based;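 further: parasites synchronized at ring stage by sorbitol before testing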
[5] = P. falciparum Dd2 growth inhibitors, dose response, SYBR Green, cherry-picked samples (AID 1159567); type: functional, cell-based
[6] = P. falciparum 3D7-ScDHODH growth inhibitors, dose response, SYBR Green, dry powder samples (AID 1159570); type: functional, cell-based;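 further: parasite growth measured after 72 hours of compound exposure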
[7] = P. falciparum Dd2 growth inhibitors, dose response, SYBR Green, dry powder samples (AID 1159566); type: functional, cell-based;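 further: potency for growth inhibition with lower SYBR green DNA signal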
[8] = HeLa 4N DNA content increase, dose response, cell-based, IC50 (AID 1117351); type: functional
[9] = Dose-response inhibition of insulin secretion in a rat insulinoma line at 5 mM glucose (AID 1117331); type: functional, cell-based; details: INS-1E
[10] = cells; type: functional, cell-based; details: INS-1E
[11] = HeLa 2N DNA content increase, dose response, cell-based, IC50 (AID 1117349); type: functional
[12] = biological target: T1, COUP transcription factor 2 (Homo sapiens, UniProt P24468); test: Luminescence-based cell-based high throughput dose response assay to identify inhibitors of COUP-TFII (NR2F2).; type: functional;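 further: HEK293 cells transiently cotransfected with COUP-TFII expression vector and reporter; luciferase reporter luminescence driven by COUP-TFII from the pX2-168 reporter plasmid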
T1 sequence (P24468 whole entry): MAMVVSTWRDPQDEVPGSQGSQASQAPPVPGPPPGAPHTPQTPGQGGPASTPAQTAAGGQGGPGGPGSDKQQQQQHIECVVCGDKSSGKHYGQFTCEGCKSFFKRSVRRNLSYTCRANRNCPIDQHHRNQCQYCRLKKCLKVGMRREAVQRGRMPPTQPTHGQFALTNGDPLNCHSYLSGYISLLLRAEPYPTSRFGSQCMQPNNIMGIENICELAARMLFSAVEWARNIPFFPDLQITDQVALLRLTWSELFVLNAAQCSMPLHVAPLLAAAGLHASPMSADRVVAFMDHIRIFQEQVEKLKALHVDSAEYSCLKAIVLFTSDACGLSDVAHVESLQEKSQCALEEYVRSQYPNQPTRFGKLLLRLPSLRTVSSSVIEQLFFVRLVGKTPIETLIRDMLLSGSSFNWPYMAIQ

[13] = CEM21 cell cytotoxicity, dose response, cytotoxicity control, plate reader, dry powder (AID 687026); type: functional, cell-based
[14] = ZM109 Env clade C HIV-1 fusion inhibitors, dose response, HeLa effector, CEM target cells, luciferase, cherry-pick (AID 652058); type: functional, cell-based
[15] = inhibitors of HIV Env-driven cell fusion, dose response, cherry-pick (AID 652057); type: functional, cell-based
[16] = cytotoxicity in KRAS-transformed pancreatic duct cells, primary screen, cell-based, fluorescence, HTS (AID 431); type: functional; details: Homo sapiens;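 further: cell line used: HPDE-C7K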
[17] = HIV Env cell-cell fusion inhibitors, dose response, HIV entry, plate reader, dry powder (AID 687023); type: functional, cell-based
[18] = CEM21 lymphoblast cell cytotoxicity, dose response, cytotoxicity control for viral fusion inhibitor project, CellTiter-Glo luminescence, cherry-picked (AID 652042); type: functional, cell-based;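 further: potency for signal decrease meaning cytotoxicity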
[19] = biological target: Sphingosine 1-phosphate receptor 2 (Homo sapiens, UniProt O95136); test: Dose Response Cell Based Assay for Antagonists of the S1P2 Receptor. [Related pubchem assays: 856, 736 ]; type: functional
Sequence of Sphingosine 1-phosphate receptor 2 (O95136 whole entry): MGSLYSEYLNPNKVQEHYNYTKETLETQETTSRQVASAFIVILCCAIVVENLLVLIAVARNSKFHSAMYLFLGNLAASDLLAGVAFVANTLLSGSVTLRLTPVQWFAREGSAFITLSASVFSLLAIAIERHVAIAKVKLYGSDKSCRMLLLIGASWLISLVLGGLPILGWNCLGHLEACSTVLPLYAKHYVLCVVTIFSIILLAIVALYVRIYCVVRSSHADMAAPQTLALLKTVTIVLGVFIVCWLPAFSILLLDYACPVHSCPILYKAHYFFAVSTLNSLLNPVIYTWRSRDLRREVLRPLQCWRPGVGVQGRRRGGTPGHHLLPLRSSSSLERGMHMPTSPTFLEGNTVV

[20] = test system: INS1; test: beta cell apoptosis inhibitors, cytokine rescue, dose response, luminescence, retest (AID 449756); type: functional, cell-based; details: Rattus norvegicus;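 further: cell death triggered by IL-1 beta plus TNF-alpha plus IFN-gamma mixture; protective hits raise ATP signal compared with cytokine alone wells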
[21] = cytotoxicity in HPDE-C7 cells, cell-based, fluorescence, HTS (AID 430); type: functional; details: Homo sapiens
[22] = inhibitors of clade B AD8 Env fusion, dose response, cell-based, cherry-pick (AID 652062); type: functional;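 further: luciferase signal from cell-cell fusion driven by HIV-1 clade B AD8 Env; potency is for inhibitors of fusion seen as a drop in luminescence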
[23] = RKO cell viability reduction, dose response, CellTiter-Glo luminescence (AID 1117322); type: functional
[24] = CellTiter-Glo luminescent dose response of DLD-1 viability loss (AID 1117352); type: functional
[25] = cytotoxicity toward HT-29 cells – cell-based, CellTiter-Glo luminescence, IC50, dose response (AID 1117330); type: functional
[26] = Concentration-dependent survival of SW480 colon cancer line, luminescence detection with CellTiter-Glo, half-maximal inhibitory concentration (AID 1117338); type: functional
[27] = cytotoxicity toward HCT116 cells – cell-based, CellTiter-Glo luminescence, IC50, dose response (AID 1117332); type: functional; details: HCT-116
[28] = SNU-C1 cell viability reduction, dose response, CellTiter-Glo luminescence (AID 1117323); type: functional, cell-based
[29] = cytotoxicity toward Colo320 cells – cell-based, CellTiter-Glo luminescence, IC50, dose response (AID 1117334); type: functional; details: COLO 320

## CCCNC(=O)N1[C@H](C#N)[C@H](c2ccc(-c3ccccc3F)cc2)[C@H]1CO
[1]
  AC50: > 42 µM (inactive)
[2]
  AC50: 0.0589 µM (active)
[3]
  AC50: 0.0988 µM (active)
[4]
  AC50: 0.0114 µM (active)
[5]
  AC50: < 0.35 µM (active)
[6]
  AC50: 14.9 µM (active)
[7]
  AC50: 0.00986 µM (active)

## CC(CC1c2ccccc2CCc2ccccc21)CN(C)C (centres undefined) [BUTRIPTYLINE]
[8]
  IC50: > 10 µM (inactive)
[9]
  IC50: 3.64 µM (active)
[10]
  IC50: > 33.3 µM (inactive)
[11]
  IC50: > 10 µM (inactive)

## COc1ccc2c(c1)[nH]c1c(N3CCN(Cc4ccc5c(c4)OCO5)CC3)ncnc12
[12]
  IC50: 6.68 µM (active)
[13]
  AC50: 35.8 µM (active) and 32.4 µM (active)
[14]
  AC50: 6.42 µM (active)
[15]
  AC50: 3.89 µM (active)
[16]
  EC50: 14.8 µM (active)
[17]
  AC50: 2.72 µM (active) and 5.39 µM (active)
[18]
  AC50: 38 µM (active)
[19]
  IC50: 4.01 µM (active)
[20]
  AC50: 2.06 µM (active)
[21]
  EC50: 16.7 µM (active)
[22]
  AC50: 4.68 µM (active)

## CCCCCCOc1ccccc1C(N)=O [EXALAMIDE]
[23]
  IC50: > 6.67 µM (inactive)
[24]
  IC50: 8.67 µM (inactive)
[25]
  IC50: > 20 µM (inactive)
[26]
  IC50: > 20 µM (inactive)
[27]
  IC50: > 6.67 µM (inactive)
[28]
  IC50: 9.36 µM (inactive)
[29]
  IC50: > 20 µM (inactive)
